This note sets out measurements from ChEMBL document CHEMBL4813994, “Discovery of novel and potent PARP/PI3K dual inhibitors for the treatment of cancer” (Eur J Med Chem, 2021).

SMILES strings stand for the structures.

Chain of Poly [ADP-ribose] polymerase 2 (Q9UGN5 whole entry): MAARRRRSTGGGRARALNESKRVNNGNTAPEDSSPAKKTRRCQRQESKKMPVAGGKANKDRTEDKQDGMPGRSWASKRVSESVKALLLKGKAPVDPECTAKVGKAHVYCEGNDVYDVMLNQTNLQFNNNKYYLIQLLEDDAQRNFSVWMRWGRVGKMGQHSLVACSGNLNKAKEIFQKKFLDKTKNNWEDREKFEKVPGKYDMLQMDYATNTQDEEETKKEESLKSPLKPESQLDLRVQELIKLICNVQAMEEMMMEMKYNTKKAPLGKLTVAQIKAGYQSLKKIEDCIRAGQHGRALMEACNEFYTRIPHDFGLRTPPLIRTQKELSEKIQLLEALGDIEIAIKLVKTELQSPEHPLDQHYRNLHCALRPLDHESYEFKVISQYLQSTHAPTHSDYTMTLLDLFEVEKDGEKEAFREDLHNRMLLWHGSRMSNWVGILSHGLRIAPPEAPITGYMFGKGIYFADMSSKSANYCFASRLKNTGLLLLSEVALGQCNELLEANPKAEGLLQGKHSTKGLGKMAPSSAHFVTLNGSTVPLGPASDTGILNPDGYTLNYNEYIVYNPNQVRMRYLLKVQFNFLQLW

One assay deals with Poly [ADP-ribose] polymerase 1 (Homo sapiens, UniProt P09874). Nature of the assay: Inhibition of PARP1 (unknown origin) using biotin-NAD+ as substrate incubated for 1 hr by ELISA.
Chain of Poly [ADP-ribose] polymerase 1 (P09874 whole entry): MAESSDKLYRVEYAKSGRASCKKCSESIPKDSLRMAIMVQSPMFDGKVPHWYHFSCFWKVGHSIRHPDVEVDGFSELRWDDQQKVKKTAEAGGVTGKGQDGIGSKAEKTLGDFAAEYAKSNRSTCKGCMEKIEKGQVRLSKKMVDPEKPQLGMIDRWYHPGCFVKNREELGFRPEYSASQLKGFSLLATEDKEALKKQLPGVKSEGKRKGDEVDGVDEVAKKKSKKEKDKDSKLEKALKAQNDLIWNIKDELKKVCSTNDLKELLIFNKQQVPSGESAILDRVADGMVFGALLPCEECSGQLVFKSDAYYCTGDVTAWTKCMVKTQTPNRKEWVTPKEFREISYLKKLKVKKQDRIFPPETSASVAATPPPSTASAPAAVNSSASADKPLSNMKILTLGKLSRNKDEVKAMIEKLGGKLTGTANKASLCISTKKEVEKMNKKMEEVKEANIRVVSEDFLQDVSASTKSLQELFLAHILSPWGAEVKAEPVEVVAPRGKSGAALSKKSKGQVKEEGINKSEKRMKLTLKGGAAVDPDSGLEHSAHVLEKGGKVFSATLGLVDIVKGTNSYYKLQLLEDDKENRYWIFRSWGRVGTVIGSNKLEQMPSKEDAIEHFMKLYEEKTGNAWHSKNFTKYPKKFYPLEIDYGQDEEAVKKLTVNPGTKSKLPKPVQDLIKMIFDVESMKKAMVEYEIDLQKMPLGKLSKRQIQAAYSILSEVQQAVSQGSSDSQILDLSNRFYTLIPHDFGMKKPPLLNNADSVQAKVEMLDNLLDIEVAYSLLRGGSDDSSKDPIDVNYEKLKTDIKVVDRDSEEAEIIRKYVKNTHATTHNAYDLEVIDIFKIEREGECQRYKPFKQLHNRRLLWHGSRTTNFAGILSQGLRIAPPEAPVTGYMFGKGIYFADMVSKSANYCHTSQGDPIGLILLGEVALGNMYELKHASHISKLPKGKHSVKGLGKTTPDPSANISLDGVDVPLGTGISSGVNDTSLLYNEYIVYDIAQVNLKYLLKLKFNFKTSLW
Conditions: not given
On the technique in general: ELISA stands for enzyme-linked immunosorbent assay.
In the case of `Cc1c(CN2CCN(C(=O)c3cc4cccc(C(N)=O)c4o3)CC2)sc2c(N3CCOCC3)nc(-c3cnc(N)cc3C(F)(F)F)nc12`, half-maximal inhibition (IC50) was put at 101 nM.
Consider `Cc1c(CN2CCN(C(=O)c3cc4cccc(C(N)=O)c4o3)CC2)sc2c(N3CCOCC3)nc(-c3cnc(N)nc3)nc12`, for which the midpoint of inhibition, the IC50, lay at 0.91 nM.
As for `Cc1c(CN2CCN(C(=O)c3cc4cccc(C(N)=O)c4o3)CC2)sc2c(N3CCOCC3)nc(-c3ccc(N)cc3F)nc12`, half-maximal inhibition (IC50) was put at 40.1 nM.
For the compound `NC(=O)c1cccc2cc(C(=O)N3CCN(Cc4cc5nc(-c6cnc(N)nc6)nc(N6CCOCC6)c5o4)CC3)oc12`, inhibition was half-maximal at 2.97 nM (IC50).

The target in another assay is Phosphatidylinositol 4,5-bisphosphate 3-kinase catalytic subunit alpha isoform (Homo sapiens, UniProt P42336). Description: Inhibition of PI3Kalpha (unknown origin) using PIP2 as substrate measured after 40 mins by ADP-glo plus luminescence assay.
Chain of Phosphatidylinositol 4,5-bisphosphate 3-kinase catalytic subunit alpha isoform (P42336 whole entry, canonical isoform): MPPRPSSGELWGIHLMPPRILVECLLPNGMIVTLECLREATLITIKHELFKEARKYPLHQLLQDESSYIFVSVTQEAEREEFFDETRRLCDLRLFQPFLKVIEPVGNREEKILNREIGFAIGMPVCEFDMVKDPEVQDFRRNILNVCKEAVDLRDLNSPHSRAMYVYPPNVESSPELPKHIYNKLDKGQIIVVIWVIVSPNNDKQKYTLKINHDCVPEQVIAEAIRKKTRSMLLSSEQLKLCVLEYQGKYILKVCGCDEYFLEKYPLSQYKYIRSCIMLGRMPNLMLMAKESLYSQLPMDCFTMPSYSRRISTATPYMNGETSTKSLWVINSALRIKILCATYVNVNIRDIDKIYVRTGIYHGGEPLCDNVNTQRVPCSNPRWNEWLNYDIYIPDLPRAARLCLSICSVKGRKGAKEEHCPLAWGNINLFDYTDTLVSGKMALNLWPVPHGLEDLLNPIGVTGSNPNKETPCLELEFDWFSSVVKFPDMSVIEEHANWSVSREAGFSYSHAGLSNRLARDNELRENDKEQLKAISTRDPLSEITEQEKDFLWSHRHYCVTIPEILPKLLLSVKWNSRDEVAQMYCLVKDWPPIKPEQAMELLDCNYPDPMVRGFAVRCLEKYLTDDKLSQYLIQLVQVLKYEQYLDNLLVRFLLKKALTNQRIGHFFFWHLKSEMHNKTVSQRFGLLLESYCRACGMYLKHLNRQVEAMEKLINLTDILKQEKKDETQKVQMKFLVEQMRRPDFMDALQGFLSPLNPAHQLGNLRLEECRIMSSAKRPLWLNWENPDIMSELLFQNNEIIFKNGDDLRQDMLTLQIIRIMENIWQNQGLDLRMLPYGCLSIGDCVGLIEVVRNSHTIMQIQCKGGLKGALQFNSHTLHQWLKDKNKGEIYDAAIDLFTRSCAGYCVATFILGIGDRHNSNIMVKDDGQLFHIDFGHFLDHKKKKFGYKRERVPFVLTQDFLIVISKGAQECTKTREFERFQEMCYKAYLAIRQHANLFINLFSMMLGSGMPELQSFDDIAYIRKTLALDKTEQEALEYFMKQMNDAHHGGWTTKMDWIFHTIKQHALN
Conditions: not given
For orientation: ADP-Glo first removes unused ATP, then detects ADP through luciferase.
In the case of `Cc1c(CN2CCN(C(=O)c3cc4cccc(C(N)=O)c4o3)CC2)sc2c(N3CCOCC3)nc(-c3cnc(N)cc3C(F)(F)F)nc12`, the IC50 (as a rule, the point on the concentration scale where inhibition reaches its midpoint) came to 2.3 nM.
With `Cc1c(CN2CCN(C(=O)c3cc4cccc(C(N)=O)c4o3)CC2)sc2c(N3CCOCC3)nc(-c3cnc(N)nc3)nc12`, the IC50 came to 1.5 nM.
The same measure, in the same setting: next, `NC(=O)c1cccc2cc(C(=O)N3CCN(Cc4cc5nc(-c6cnc(N)nc6)nc(N6CCOCC6)c5o4)CC3)oc12`: 0.51 nM.

For another assay, the system named is HCT-116. Description: Antiproliferative activity against human BRCA-2 deficient HCT-116 cells assessed as reduction in cell growth incubated for 7 days by cell titer-glo assay. Format: functional, cell-based. To be noted: HCT-116, 168 h. A general note: In ATP-based viability assays light output follows the ATP content of the culture.
In the case of `Cc1c(CN2CCN(C(=O)c3cc4cccc(C(N)=O)c4o3)CC2)sc2c(N3CCOCC3)nc(-c3cnc(N)cc3C(F)(F)F)nc12`, the IC50 is 690 nM.
Turning to `Cc1c(CN2CCN(C(=O)c3cc4cccc(C(N)=O)c4o3)CC2)sc2c(N3CCOCC3)nc(-c3cnc(N)nc3)nc12`, the IC50 turned out to be 280 nM.

The next assay relates to SW-620. Nature of the assay: Antiproliferative activity against human BRCA-2 proficient SW-620 cells assessed as reduction in cell growth incubated for 7 days by cell titer-glo assay. It is filed as functional, cell-based. To be noted: SW-620, 168 h.
Regarding `Cc1c(CN2CCN(C(=O)c3cc4cccc(C(N)=O)c4o3)CC2)sc2c(N3CCOCC3)nc(-c3cnc(N)cc3C(F)(F)F)nc12`, the half-inhibitory concentration (IC50) was determined as 3370 nM.
As for `Cc1c(CN2CCN(C(=O)c3cc4cccc(C(N)=O)c4o3)CC2)sc2c(N3CCOCC3)nc(-c3cnc(N)nc3)nc12`, the 50% inhibitory concentration (IC50) was 880 nM.

A further assay has as its system HCC1937. Description: Antiproliferative activity against human BRCA-1 deficient HCC1937 cells assessed as reduction in cell growth incubated for 7 days by cell titer-glo assay. Format: functional, cell-based. To be noted: HCC1937, 168 h.
For `Cc1c(CN2CCN(C(=O)c3cc4cccc(C(N)=O)c4o3)CC2)sc2c(N3CCOCC3)nc(-c3cnc(N)cc3C(F)(F)F)nc12`, the IC50 is 500 nM.
Regarding `Cc1c(CN2CCN(C(=O)c3cc4cccc(C(N)=O)c4o3)CC2)sc2c(N3CCOCC3)nc(-c3cnc(N)nc3)nc12`, the 50% inhibitory concentration (IC50) stood at 290 nM.

The test system of the next assay is MDA-MB-231. Description: Antiproliferative activity against human BRCA proficient MDA-MB-231 cells assessed as reduction in cell growth incubated for 7 days by cell titer-glo assay. The following applies: MDA-MB-231, 168 h. Format: functional, cell-based.
As to `Cc1c(CN2CCN(C(=O)c3cc4cccc(C(N)=O)c4o3)CC2)sc2c(N3CCOCC3)nc(-c3cnc(N)cc3C(F)(F)F)nc12`, the IC50 turned out to be 3170 nM.
For the compound `Cc1c(CN2CCN(C(=O)c3cc4cccc(C(N)=O)c4o3)CC2)sc2c(N3CCOCC3)nc(-c3cnc(N)nc3)nc12`, the concentration for half-maximal inhibition (IC50) is 920 nM.

A further assay deals with MDA-MB-468. Nature of the assay: Antiproliferative activity against human BRCA proficient MDA-MB-468 cells assessed as reduction in cell growth incubated for 7 days by cell titer-glo assay. Format: functional, cell-based. The following applies: MDA-MB-468, 168 h.
With `Cc1c(CN2CCN(C(=O)c3cc4cccc(C(N)=O)c4o3)CC2)sc2c(N3CCOCC3)nc(-c3cnc(N)cc3C(F)(F)F)nc12`, the IC50 is 1630 nM.
With `Cc1c(CN2CCN(C(=O)c3cc4cccc(C(N)=O)c4o3)CC2)sc2c(N3CCOCC3)nc(-c3cnc(N)nc3)nc12`, the half-maximal inhibitory concentration (IC50) was 1020 nM.

A further assay concerns the target Poly [ADP-ribose] polymerase 2 (Homo sapiens, UniProt Q9UGN5). Description: Inhibition of PARP2 (unknown origin) using biotin-NAD+ as substrate incubated for 1 hr by ELISA.
Conditions: not given
In turn, `Cc1c(CN2CCN(C(=O)c3cc4cccc(C(N)=O)c4o3)CC2)sc2c(N3CCOCC3)nc(-c3cnc(N)nc3)nc12` showed a half-inhibitory concentration (IC50) of 0.92 nM.
The same measure, in the same setting: next, `NC(=O)c1cccc2cc(C(=O)N3CCN(Cc4cc5nc(-c6cnc(N)nc6)nc(N6CCOCC6)c5o4)CC3)oc12`: 1.34 nM.

For the next assay, the target named is Phosphatidylinositol 4,5-bisphosphate 3-kinase catalytic subunit beta isoform (Homo sapiens, UniProt P42338). Description: Inhibition of PI3Kbeta (unknown origin) using PIP2 as substrate measured after 1 hr by ADP-glo plus luminescence assay.
Chain of Phosphatidylinositol 4,5-bisphosphate 3-kinase catalytic subunit beta isoform (P42338 whole entry, canonical isoform): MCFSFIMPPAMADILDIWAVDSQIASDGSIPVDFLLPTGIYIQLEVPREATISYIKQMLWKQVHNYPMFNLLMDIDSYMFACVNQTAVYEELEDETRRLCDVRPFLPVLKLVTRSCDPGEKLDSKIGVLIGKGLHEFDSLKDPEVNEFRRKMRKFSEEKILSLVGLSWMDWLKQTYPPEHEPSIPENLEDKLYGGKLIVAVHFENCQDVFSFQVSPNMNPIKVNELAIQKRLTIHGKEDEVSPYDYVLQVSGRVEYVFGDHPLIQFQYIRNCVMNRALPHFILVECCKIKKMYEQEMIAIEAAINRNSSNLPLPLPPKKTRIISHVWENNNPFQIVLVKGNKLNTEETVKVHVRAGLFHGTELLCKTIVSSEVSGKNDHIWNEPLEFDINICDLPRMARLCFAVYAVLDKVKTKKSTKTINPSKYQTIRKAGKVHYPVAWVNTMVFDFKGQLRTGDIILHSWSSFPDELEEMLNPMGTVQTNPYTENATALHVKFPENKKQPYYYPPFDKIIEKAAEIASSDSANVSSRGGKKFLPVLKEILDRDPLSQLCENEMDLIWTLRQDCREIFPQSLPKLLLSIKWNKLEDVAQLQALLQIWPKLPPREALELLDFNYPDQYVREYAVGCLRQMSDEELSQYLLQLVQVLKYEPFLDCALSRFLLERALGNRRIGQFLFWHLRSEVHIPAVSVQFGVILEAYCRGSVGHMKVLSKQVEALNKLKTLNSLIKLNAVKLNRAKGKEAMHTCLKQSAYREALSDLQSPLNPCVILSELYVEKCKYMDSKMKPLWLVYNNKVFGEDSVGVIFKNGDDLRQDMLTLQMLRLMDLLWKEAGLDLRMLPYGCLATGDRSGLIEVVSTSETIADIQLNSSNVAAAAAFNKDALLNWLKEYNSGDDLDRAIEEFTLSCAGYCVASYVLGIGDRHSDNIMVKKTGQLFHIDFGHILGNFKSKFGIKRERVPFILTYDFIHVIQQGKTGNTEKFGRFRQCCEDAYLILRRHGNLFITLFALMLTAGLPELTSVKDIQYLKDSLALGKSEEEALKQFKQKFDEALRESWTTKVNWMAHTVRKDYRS
Conditions: not given
Take `Cc1c(CN2CCN(C(=O)c3cc4cccc(C(N)=O)c4o3)CC2)sc2c(N3CCOCC3)nc(-c3cnc(N)nc3)nc12`: the IC50 amounted to 43 nM.
On to `NC(=O)c1cccc2cc(C(=O)N3CCN(Cc4cc5nc(-c6cnc(N)nc6)nc(N6CCOCC6)c5o4)CC3)oc12`, for which the IC50 was found to be 69 nM.

The next assay deals with Phosphatidylinositol 4,5-bisphosphate 3-kinase catalytic subunit gamma isoform (Homo sapiens, UniProt P48736). Description: Inhibition of PI3Kgamma (unknown origin) using PIP2 as substrate measured after 1 hr by ADP-glo plus luminescence assay.
Chain of Phosphatidylinositol 4,5-bisphosphate 3-kinase catalytic subunit gamma isoform (P48736 whole entry, canonical isoform): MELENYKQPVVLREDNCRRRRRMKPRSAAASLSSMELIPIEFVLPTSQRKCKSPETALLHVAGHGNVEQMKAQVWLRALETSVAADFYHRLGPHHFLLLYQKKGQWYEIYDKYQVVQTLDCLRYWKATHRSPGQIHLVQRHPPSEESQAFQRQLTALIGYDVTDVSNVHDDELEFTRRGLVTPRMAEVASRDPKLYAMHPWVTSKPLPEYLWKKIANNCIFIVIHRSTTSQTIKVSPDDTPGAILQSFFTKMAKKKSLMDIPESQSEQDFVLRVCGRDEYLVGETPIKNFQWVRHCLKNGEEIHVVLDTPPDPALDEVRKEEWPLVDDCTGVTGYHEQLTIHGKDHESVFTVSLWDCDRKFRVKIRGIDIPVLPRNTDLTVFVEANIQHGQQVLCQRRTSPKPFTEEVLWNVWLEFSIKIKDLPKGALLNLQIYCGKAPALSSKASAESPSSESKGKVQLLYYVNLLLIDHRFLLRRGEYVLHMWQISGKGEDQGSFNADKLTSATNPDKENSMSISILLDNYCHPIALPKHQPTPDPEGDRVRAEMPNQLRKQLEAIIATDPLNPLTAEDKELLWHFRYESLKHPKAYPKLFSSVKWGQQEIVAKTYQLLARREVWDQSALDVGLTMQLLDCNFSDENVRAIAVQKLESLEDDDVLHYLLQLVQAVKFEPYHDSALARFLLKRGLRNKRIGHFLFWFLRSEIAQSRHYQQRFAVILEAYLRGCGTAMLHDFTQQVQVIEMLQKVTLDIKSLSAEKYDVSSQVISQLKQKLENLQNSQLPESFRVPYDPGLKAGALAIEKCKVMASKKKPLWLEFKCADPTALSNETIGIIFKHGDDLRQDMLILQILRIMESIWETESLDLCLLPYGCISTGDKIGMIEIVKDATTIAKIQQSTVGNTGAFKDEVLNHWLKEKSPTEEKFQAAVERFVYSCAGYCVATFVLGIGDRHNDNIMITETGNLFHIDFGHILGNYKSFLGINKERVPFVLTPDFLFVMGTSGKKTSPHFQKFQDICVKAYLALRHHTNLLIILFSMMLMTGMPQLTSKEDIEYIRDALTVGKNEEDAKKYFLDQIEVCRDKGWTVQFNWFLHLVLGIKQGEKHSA
Conditions: not given
For `Cc1c(CN2CCN(C(=O)c3cc4cccc(C(N)=O)c4o3)CC2)sc2c(N3CCOCC3)nc(-c3cnc(N)nc3)nc12`, the IC50 amounted to 73 nM.
On the same count and under the same terms, as for `NC(=O)c1cccc2cc(C(=O)N3CCN(Cc4cc5nc(-c6cnc(N)nc6)nc(N6CCOCC6)c5o4)CC3)oc12`, the figure is 141 nM.

The next assay addresses T1, Phosphatidylinositol 4,5-bisphosphate 3-kinase catalytic subunit delta isoform (Homo sapiens, UniProt O00329).
T1 sequence (O00329 whole entry): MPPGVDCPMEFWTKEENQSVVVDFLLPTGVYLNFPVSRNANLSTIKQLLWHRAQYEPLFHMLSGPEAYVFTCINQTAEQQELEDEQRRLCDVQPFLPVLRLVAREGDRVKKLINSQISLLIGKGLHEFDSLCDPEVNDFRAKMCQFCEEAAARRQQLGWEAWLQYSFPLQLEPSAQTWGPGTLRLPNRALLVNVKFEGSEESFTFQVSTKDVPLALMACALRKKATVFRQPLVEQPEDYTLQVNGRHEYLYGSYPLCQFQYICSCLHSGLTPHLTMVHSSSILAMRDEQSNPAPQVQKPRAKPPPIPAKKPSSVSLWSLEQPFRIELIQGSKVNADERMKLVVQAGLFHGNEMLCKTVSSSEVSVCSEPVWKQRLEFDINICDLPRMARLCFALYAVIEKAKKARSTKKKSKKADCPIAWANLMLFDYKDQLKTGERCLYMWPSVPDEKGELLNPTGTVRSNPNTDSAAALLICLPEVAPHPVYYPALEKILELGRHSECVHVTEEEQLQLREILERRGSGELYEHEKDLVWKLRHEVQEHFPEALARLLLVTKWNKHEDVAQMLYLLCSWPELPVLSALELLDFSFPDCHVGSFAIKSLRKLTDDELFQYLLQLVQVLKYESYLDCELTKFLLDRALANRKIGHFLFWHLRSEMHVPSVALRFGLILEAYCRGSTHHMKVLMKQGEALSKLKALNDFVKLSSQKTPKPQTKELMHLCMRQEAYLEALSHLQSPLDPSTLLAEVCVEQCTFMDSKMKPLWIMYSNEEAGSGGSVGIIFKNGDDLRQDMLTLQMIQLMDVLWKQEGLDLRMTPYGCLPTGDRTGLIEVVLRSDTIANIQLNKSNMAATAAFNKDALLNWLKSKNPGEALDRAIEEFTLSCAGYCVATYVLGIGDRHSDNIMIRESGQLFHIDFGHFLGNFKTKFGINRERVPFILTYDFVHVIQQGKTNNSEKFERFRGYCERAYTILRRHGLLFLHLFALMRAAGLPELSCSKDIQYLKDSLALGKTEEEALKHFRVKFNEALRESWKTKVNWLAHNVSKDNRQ
Description: Inhibition of PI3Kdelta (unknown origin) using PIP2 as substrate measured after 2 hrs by ADP-glo plus luminescence assay.
Conditions: not given
`Cc1c(CN2CCN(C(=O)c3cc4cccc(C(N)=O)c4o3)CC2)sc2c(N3CCOCC3)nc(-c3cnc(N)nc3)nc12`: the concentration for half-maximal inhibition (IC50) amounted to 2.7 nM.
Consider `NC(=O)c1cccc2cc(C(=O)N3CCN(Cc4cc5nc(-c6cnc(N)nc6)nc(N6CCOCC6)c5o4)CC3)oc12`, for which the IC50 stood at 4.3 nM.

The next assay deals with RAC-alpha serine/threonine-protein kinase (Homo sapiens, UniProt P31749). Description: Inhibition of AKT (unknown origin).
Conditions: not given
The compound `Cc1c(CN2CCN(C(=O)c3cc4cccc(C(N)=O)c4o3)CC2)sc2c(N3CCOCC3)nc(-c3cnc(N)nc3)nc12` yielded an IC50 of over 100000 nM.

The target in the next assay is Serine/threonine-protein kinase mTOR (Homo sapiens, UniProt P42345). Description: Inhibition of mTOR (unknown origin).
Conditions: not given
Take `Cc1c(CN2CCN(C(=O)c3cc4cccc(C(N)=O)c4o3)CC2)sc2c(N3CCOCC3)nc(-c3cnc(N)nc3)nc12`: 12 nM corresponded to half-maximal inhibition (IC50).
Turning to `NC(=O)c1cccc2cc(C(=O)N3CCN(Cc4cc5nc(-c6cnc(N)nc6)nc(N6CCOCC6)c5o4)CC3)oc12`, the IC50 is 216 nM.

A further assay relates to MDA-MB-468. Description: Antitumor activity against human MDA-MB-468 cells xenografted in BALB/c mouse assessed as tumor growth inhibition at 20 mg/kg, ip once daily administered for 32 days relative to control. To be noted: MDA-MB-468, ip, 768 h, time 32 day, read-out: TGI. It is filed as functional.
In the case of `Cc1c(CN2CCN(C(=O)c3cc4cccc(C(N)=O)c4o3)CC2)sc2c(N3CCOCC3)nc(-c3cnc(N)nc3)nc12`, the inhibition in vivo at 20 mg/kg was 48.8%.

A further assay has as its target Voltage-gated inwardly rectifying potassium channel KCNH2 (Homo sapiens, UniProt Q12809). Description: Inhibition of human ERG.
Conditions: not given
Regarding `Cc1c(CN2CCN(C(=O)c3cc4cccc(C(N)=O)c4o3)CC2)sc2c(N3CCOCC3)nc(-c3cnc(N)nc3)nc12`, the IC50 is over 30000 nM.
